Measured values reported in patent US20150141439A1, “PHARMACEUTICAL COMPOSITION FOR THE PREVENTION OR TREATMENT OF BRAIN TUMOR OR TEMODAL RESISTANT GLIOBLASTOMA MULTIFORM COMPRISING AZATHIOPRINE AS AN ACTIVE INGREDIENT” (KOREA RESEARCH INSTITUTE OF CHEMICAL TECHNOLOGY, priority 2012, published 2015).

Columns and labels:
[1] = tested on: glioblastoma multiform cells transplanted in the brain of a mouse; experiment: Glioblastoma multiform orthotopic animal model, survival; type: in vivo; details: single treatment; for Average Survival Period: Temodal 65 mg/kg oral for 5 days from day 17 after transplantation, control 27 days; for Survival Period Extension Rate (%): vs. untreated control, Temodal 65 mg/kg oral for 5 days from day 17
Procedure: Following experiment was performed to investigate the radiosensitizing effect and chemosensitizing effect of the compound of formula 1 (azathioprine) in the glioblastoma multiform orthotopic animal model.
Particularly, to investigate the resistance against Temodal or radiotherapy in glioblastoma multiform, glioblastoma multiform cells were cultured. The cultured cells (2×10^5/5 μl) were transplanted in the brain of a mouse. 17 days later, the administration of Temodal (65 mg/kg, oral-administration) or radiotherapy (2 Gy) began, which continued for 5 days. The average survival period was investigated. […] For the comparison, the survival period of the group treated with “Avastin”, the well-known anticancer agent, is also presented.
Glioblastoma multiform, glioblastoma multiform cells were cultured. The cultured cells (2×10^5/5 μl) were transplanted in the brain of a mouse. 17 days later, the administration of Temodal (65 mg/kg, oral-administration) or radiotherapy (2 Gy) began, which continued for 5 days. Unlike the above experiment, the compound of formula 1 of the present invention (azathioprine) was co-treated to the mouse by oral-administration at the dose of 20 mg/kg every day after 11 days from the glioblastoma multiform transplantation in the mouse brain. Then, the average survival period was investigated.

HaCat Human keratinocyte = experiment: Secondary cytotoxicity test, HaCat; type: cell-based
Procedure: (§1) Particularly, the cell growth inhibition effect was measured by WST-1 cell proliferation assay [http://www.roche-applied-science.com/PROD_INF/MANUALS/CELL_MAN/apoptosis—087—088.pdf]. The compound of formula 1 was loaded in a 384-well cell culture plate. Three types of glioblastoma multiform cell lines [proneural subtype (559T), mesenchymal subtype (592T), and classical subtype (626T)], normal human astrocytes (NHA), a lung cancer cell line (A549), and a glioblastoma multiform cell line (U87MG) were distributed in the plate at the density of 4.5×10^3 cells/well, and the medium was filled up to make 50 μl per well. At this time, the concentration of the solvent DMSO for the compound of formula 1 was no more than 0.2%. After culturing the cells for 72 hours, 5 mg/ml of WST-1 reagent was added by 5 μl per well, followed by reaction for 3˜4 hours. Then OD450 was measured to investigate the effect of the compound of formula 1 on cell proliferation.
(§2) To investigate the cell growth inhibition effect of the compound of formula 1 of the present invention (azathioprine) in many different cell lines, secondary cytotoxicity test was performed with the cell lines listed in Table 5 by the same manner as described in Example 1.

[2] = tested on: NCI-H23 Human lung adenocarcinoma; experiment: Secondary cytotoxicity test, NCI-H23; type: cell-based
Procedure: as §1, §2

[3] = tested on: CCD986SK Human fibroblast; experiment: Secondary cytotoxicity test, CCD986SK; type: cell-based; details: CCD-986Sk
Procedure: as §1, §2

[4] = tested on: MCF-7 Human breast adenocarcinoma; experiment: Secondary cytotoxicity test, MCF-7; type: cell-based; details: MCF7
Procedure: as §1, §2

[5] = tested on: HepG2 Human hepatocarcinoma; experiment: Secondary cytotoxicity test, HepG2; type: cell-based
Procedure: as §1, §2

[6] = tested on: Hela Human adenocarcinoma; experiment: Secondary cytotoxicity test, Hela; type: cell-based
Procedure: as §1, §2

[7] = tested on: U2932 Human DLBCL (Diffuse large B-cell lymphoma); experiment: Secondary cytotoxicity test, U2932; type: cell-based
Procedure: as §1, §2

[8] = tested on: MKN45 Human stomach adenocarcinoma; experiment: Secondary cytotoxicity test, MKN45; type: cell-based; details: MKN-45
Procedure: as §1, §2

[9] = tested on: HCT-116 Human colorectal carcinoma; experiment: Secondary cytotoxicity test, HCT-116; type: cell-based
Procedure: as §1, §2

[10] = tested on: PC3 Human prostate adenocarcinoma; experiment: Secondary cytotoxicity test, PC3; type: cell-based; details: PC-3
Procedure: as §1, §2

[11] = tested on: GBM #1 glioblastoma multiform patient originated cells; experiment: Neurosphere formation inhibition, GBM #1; type: cell-based, human; design: key to inhibition of neurosphere formation: S: strong effect; I: intermediate effect; R: rare effect; details: GBM #1, type A (proneural), Temodal 20 μM, duration 7 day
Procedure: (§3) Particularly, to investigate neurosphere formation, glioblastoma multiform cells were cultured for a certain time and the cells were distributed again in culture vessels, followed by additional culture. Then, the number of newly generated neurospheres was measured. First, the glioblastoma multiform patient originated cells were sub-cultured, which were distributed in a 96-well plate (20, 50, and 200 cells in 50 μl of culture medium/well). 2, 6, and 20 μM of the compound of formula 1 (azathioprine) and the compound of Comparative Example 1 (Temodal) were treated thereto by 50 μl per well to make the final concentrations of 1, 3, and 10 μM. Then, the compound of formula 1 (azathioprine) and the compound of Comparative Example 1 (Temodal) were added to 50 μl of cell culture medium with the same concentrations as the above once a week, which were then cultured for 7˜23 days. When neurosphere was formed at least 50 μm in the control group not treated with the compound, the number of neurospheres in each well was counted to compare the neurosphere formation before and after the treatment of the compound of formula 1 (azathioprine) and the compound of Comparative Example 1 (Temodal).
The glioblastoma multiform cells used in this experiment were classified into 4 types, which are type A, type B, type C, and type D, according to the gene expression pattern. Methylation of MGMT (O6-me-G methyltransferase), the DNA repair protein, was confirmed in each cell line. At that time, type A [GBM #1, #2, #3] was proneural subtype, type B [GBM #4, #5, #6, #7] was classical subtype, type C [GBM #8] was mesenchymal subtype, and type D [GBM #9, #10] was non-classified glioblastoma multiform.

[12] = tested on: GBM #7 glioblastoma multiform patient originated cells; experiment: Neurosphere formation inhibition, GBM #7; type: cell-based, human; design: key: S: strong effect; I: intermediate effect; R: rare effect; details: GBM #7, type B (classical), Temodal 20 μM, duration 23 day
Procedure: as §3
(§4) The glioblastoma multiform cells used in this experiment were classified into 4 types, which are type A, type B, type C, and type D, according to the gene expression pattern. […]

[13] = tested on: GBM #6 glioblastoma multiform patient originated cells; experiment: Neurosphere formation inhibition, GBM #6; type: cell-based, human; design: key: S: strong effect; I: intermediate effect; R: rare effect; details: GBM #6, type B (classical), Temodal 20 μM, duration 23 day
Procedure: as §3, §4

[14] = tested on: GBM #4 glioblastoma multiform patient originated cells; experiment: Neurosphere formation inhibition, GBM #4; type: cell-based, human; design: key: S: strong effect; I: intermediate effect; R: rare effect; details: GBM #4, type B (classical), Temodal 20 μM, duration 9 day
Procedure: as §3, with “2, 6, and 20 μM of the compound of formula 1 (azathioprine) and the compound of Comparative Example 1 (Temodal) were treated thereto by 50 μl per well to make the final concentrations of 1, 3, and 10 μM.” left out
(§5) The glioblastoma multiform cells used in this experiment were classified into 4 types, which are type A, type B, type C, and type D, according to the gene expression pattern. Methylation of MGMT (O6-me-G methyltransferase), the DNA repair protein, was confirmed in each cell line. […]

[15] = tested on: GBM #3 glioblastoma multiform patient originated cells; experiment: Neurosphere formation inhibition, GBM #3; type: cell-based, human; design: key: S: strong effect; I: intermediate effect; R: rare effect; details: GBM #3, type A (proneural), Temodal 20 μM, duration 21 day
Procedure: as §3, with “2, 6, and 20 μM of the compound of formula 1 (azathioprine) and the compound of Comparative Example 1 (Temodal) were treated thereto by 50 μl per well to make the final concentrations of 1, 3, and 10 μM.” left out
as §5

[16] = tested on: GBM #10 glioblastoma multiform patient originated cells; experiment: Neurosphere formation inhibition, GBM #10; type: cell-based, human; design: key: S: strong effect; I: intermediate effect; R: rare effect; details: GBM #10, type D (non-classified), Temodal 20 μM, duration 10 day
Procedure: as §3, with “2, 6, and 20 μM of the compound of formula 1 (azathioprine) and the compound of Comparative Example 1 (Temodal) were treated thereto by 50 μl per well to make the final concentrations of 1, 3, and 10 μM.” left out
as §5

[17] = tested on: GBM #2 glioblastoma multiform patient originated cells; experiment: Neurosphere formation inhibition, GBM #2; type: cell-based, human; design: key: S: strong effect; I: intermediate effect; R: rare effect; details: GBM #2, type A (proneural), Temodal 20 μM, duration 15 day
Procedure: as §3, with “2, 6, and 20 μM of the compound of formula 1 (azathioprine) and the compound of Comparative Example 1 (Temodal) were treated thereto by 50 μl per well to make the final concentrations of 1, 3, and 10 μM.” left out
as §5

[18] = tested on: GBM #8 glioblastoma multiform patient originated cells; experiment: Neurosphere formation inhibition, GBM #8; type: cell-based, human; design: key: S: strong effect; I: intermediate effect; R: rare effect; details: GBM #8, type C (mesenchymal), Temodal 20 μM, duration 15 day
Procedure: as §3, §4

[19] = tested on: GBM #5 glioblastoma multiform patient originated cells; experiment: Neurosphere formation inhibition, GBM #5; type: cell-based, human; design: key: S: strong effect; I: intermediate effect; R: rare effect; details: GBM #5, type B (classical), Temodal 20 μM, duration 21 day
Procedure: as §3, with “2, 6, and 20 μM of the compound of formula 1 (azathioprine) and the compound of Comparative Example 1 (Temodal) were treated thereto by 50 μl per well to make the final concentrations of 1, 3, and 10 μM.” left out
as §5

[20] = tested on: cells of lung cancer with brain metastasis transplanted in the mouse brain; experiment: Animal test with cells of lung cancer with brain metastasis, survival; type: in vivo; details: azathioprine 2 mg/kg oral every day after day 11, Temodal (TMZ) 65 mg/kg oral 5 days from day 17
Procedure: The cells of lung cancer with brain metastasis were obtained from Samsung Hospital (Seoul) and cultured. The cultured cells (2×10^5/5 μl) were transplanted in the mouse brain. 17 days later, Temodal administration (65 mg/kg, oral administration) began, which continued for 5 days. The compound of formula 1 of the present invention (azathioprine) was co-treated to the mouse by oral-administration at the dose of 2 mg/kg every day after 11 days from the transplantation of the cells of lung cancer with brain metastasis in the mouse brain. Then, the average survival period was investigated.

[21] = tested on: GBM #9 glioblastoma multiform patient originated cells; experiment: Neurosphere formation inhibition, GBM #9; type: cell-based, human; design: key: S: strong effect; I: intermediate effect; R: rare effect; details: GBM #9, type D (non-classified), Temodal 20 μM, duration 21 day
Procedure: as §3, with “2, 6, and 20 μM of the compound of formula 1 (azathioprine) and the compound of Comparative Example 1 (Temodal) were treated thereto by 50 μl per well to make the final concentrations of 1, 3, and 10 μM.” left out
as §5

With “Avastin: the well-known anticancer agent” the “Average Survival Period” value [1] was 28 days and the “Survival Period Extension Rate (%)” value [1] was 8%.

Work on `COc1cccc2c1C(=O)c1c(O)c3c(c(O)c1C2=O)C[C@@](O)(C(=O)CO)C[C@@H]3O[C@H]1C[C@H](N)[C@H](O)[C@H](C)O1` [Doxorubicin, reference compound] yielded an IC50 (HaCat Human keratinocyte) of 230 nM, an IC50 [2] of 190 nM and an IC50 [3] of 960 nM. It also gave an IC50 [4] of 550 nM, an IC50 [5] of 700 nM and an IC50 [6] of 370 nM. For the same compound, the IC50 [7] was 440 nM, the IC50 [8] was 280 nM and the IC50 [9] was 390 nM. It also gave an IC50 [10] of 350 nM.

`Cn1nnc2c(C(N)=O)ncn2c1=O` [Temodal, temozolomide] was tested, and the “inhibition of neurosphere formation” value [11] was “S”, the “inhibition of neurosphere formation” value [12] was “S” and the “inhibition of neurosphere formation” value [13] was “S”. The “inhibition of neurosphere formation” value [14] was “S”, the “inhibition of neurosphere formation” value [15] was “R” and the “inhibition of neurosphere formation” value [16] was “R”. The “inhibition of neurosphere formation” value [17] was “R”, the “inhibition of neurosphere formation” value [18] was “R” and the “Average Survival Period” value [1] was 31 days. For the same compound, the “Survival Period Extension Rate (%)” value [1] was 19%, the “inhibition of neurosphere formation” value [19] was “S” and the “Average Survival Period” value [20] was 63 days. The “Survival Period Extension Rate (%)” value [20] was 100-129% and the “inhibition of neurosphere formation” value [21] was “S”.
